# Measured values taken from patent US8993595B2, “Macrocyclic serine protease inhibitors” (priority 2009, dated 2015).
# Legend:
# HCV NS3-NS4A protease = target: T1, HCV NS3-NS4A protease (Hepatitis C virus genotype 1a, UniProt P27958); assay: HCV Protease Assay (SensoLyte 620 HCV Protease Assay kit); format: biochemical; conditions: 1.2 nM HCV NS3-NS4A protease, 60 min, room temperature
# T1 construct: HCV NS3-NS4A protease, which was obtained according to Taremi et al; made in house
# Experimental: Measurement of the inhibitory effect of compounds on HCV protease activity was performed with the SensoLyte™ 620 HCV Protease Assay kit from AnaSpec, Inc. (San Jose, Calif.) under conditions described by the supplier using 1.2 nM HCV NS3-NS4A protease, which was obtained according to Taremi et al. (Protein Science, 1998, 7, 2143-2149). The compounds were tested at a variety of concentrations in assay buffer containing a final DMSO concentration of 5%. Reactions were allowed to proceed for 60 min at room temperature and fluorescence measurements were recorded with a Tecan Infinity Spectrofluorimeter. The IC50 values were determined from the percent inhibition versus concentration data using a sigmoidal non-linear regression analysis based on four parameters with Tecan Magellan software.
# [1] = system: HCV Con1 subgenomic replicon in Huh-7 cells (GS4.1 cells); assay: HCV Replicon Assay (NS4A ELISA); format: cell-based; conditions: Hepatitis C virus, 72 hr
# Experimental: Huh-7 cells containing HCV Con1 subgenomic replicon (GS4.1 cells) were grown in Dulbecco's Modified Eagle Medium (DMEM) supplemented with 10% fetal bovine serum (FBS), 2 mM L-glutamine, 110 mg/L sodium pyruvate, 1× non-essential amino acids, 100 U/mL penicillin-streptomycin, and 0.5 mg/mL G418 (Invitrogen). For dose-response testing, the cells were seeded in 96-well plates at 7.5×10^3 cells/well in a volume of 50 μL, and incubated at 37° C./5% CO2. Three hours after plating, 50 μL of ten 2-fold serial dilutions of compounds (highest concentration, 75 μM) were added, and cell cultures were incubated at 37° C./5% CO2 in the presence of 0.5% DMSO. Alternatively, compounds were tested at a single concentration of 15 μM. In all cases, Huh-7 cells lacking the HCV replicon served as negative control. The cells were incubated in the presence of compounds for 72 hr after which they were monitored for expression of the NS4A protein by enzyme-linked immunosorbent assay (ELISA). For this, the plates were then fixed for 1 min with acetone/methanol (1:1, v/v), washed twice with phosphate-buffered saline (PBS), 0.1% Tween 20, blocked for 1 hr at room temperature with TNE buffer containing 10% FBS and then incubated for 2 hr at 37° C. with the anti-NS4A mouse monoclonal antibody A-236 (ViroGen) diluted in the same buffer. After washing three times with PBS, 0.1% Tween 20, the cells were incubated 1 hr at 37° C. with anti-mouse immunoglobulin G-peroxidase conjugate in TNE, 10% FBS. After washing as described above, the reaction was developed with O-phenylenediamine (Zymed). The reaction was stopped after 30 min with 2 N H2SO4, and absorbance was read at 492 nm using Sunrise Tecan spectrophotometer. EC50 values were determined from the % inhibition versus concentration data using a sigmoidal non-linear regression analysis based on four parameters with Tecan Magellan software.
# in vitro = format: cell-based; conditions: human; GS4.1 cells, Cell Titer 96 AQueous One Solution
# Experimental: For cytotoxicity evaluation, GS4.1 cells were treated with compounds as described above and cellular viability was monitored using the Cell Titer 96 AQueous One Solution Cell Proliferation Assay (Promega). CC50 values were determined from the % cytotoxicity versus concentration data with Tecan Magellan software as described above.
# T1 sequence (P27958 1027-1208): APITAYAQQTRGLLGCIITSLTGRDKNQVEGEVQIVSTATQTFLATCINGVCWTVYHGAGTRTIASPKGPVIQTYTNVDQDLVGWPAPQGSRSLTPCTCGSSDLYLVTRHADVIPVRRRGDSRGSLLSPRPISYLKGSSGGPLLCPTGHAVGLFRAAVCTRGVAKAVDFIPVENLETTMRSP
Structure (SMILES),IC50 (HCV NS3-NS4A protease) [nM],EC50 [1] [nM],CC50 (in vitro) [nM]
COc1ccc2c(O[C@H]3CCN4C(=O)N(C)CCCC/C=C\[C@@H]5C[C@@]5(C(=O)NS(=O)(=O)C5(C)CC5)NC(=O)[C@@H]4C3)nc(-c3ccc(F)cc3)nc2c1C [Compound 56],< 1000,< 1000,> 75000
"COc1ccc2c(O[C@H]3CCN4C(=O)N(C)CCCC/C=C\[C@@H]5C[C@@]5(C(=O)NS(=O)(=O)C5(C)CC5)NC(=O)[C@@H]4C3)nc(-c3nc(C(F)(F)F)cs3)nc2c1C [Compound 57, 1-methyl-cyclopropanesulfonic acid {(Z)-(1S,4R,6S,18S)-18-[7-methoxy-8-methyl-2-(4-trifluoromethyl-thiazol-2-yl)quinazolin-4-yloxy]-13-methyl-2,14-dioxo-3,13,15-triaza-tricyclo[13.4.0.0*4,6*]nonadec-7-ene-4-carbonyl}-amide]",< 1000,< 1000,10000 to 75000
COc1ccc2c(O[C@H]3CCN4C(=O)N(C)CCOC/C=C\[C@@H]5C[C@@]5(C(=O)NS(=O)(=O)C5(C)CC5)NC(=O)[C@@H]4C3)cc(-c3nc(C(F)(F)F)cs3)nc2c1C [Compound 54],< 1000,1000 to 10000,> 75000
"C#Cc1csc(-c2cc(O[C@H]3CCN4C(=O)N(C)CCCC/C=C\[C@@H]5C[C@@]5(C(=O)NS(=O)(=O)C5(C)CC5)NC(=O)[C@@H]4C3)c3ccc(OC)c(C)c3n2)n1 [Compound 55, 1-methyl-cycloprpoanesulfonic acid{(Z)-(1S,4R,6S,18S)-18-[2-(4-ethynyl-thiazol-2-yl)-7-methoxy-8-methyl-quinolin-4-yl-oxy]-13-methyl-2,14-dioxo-3,13,15-triaza-tricyclo[13.4.0.0*4,6*]nonadec-7-ene-4-carbonyl}-amide]",< 1000,< 1000,10000 to 75000
"COc1ccc2c(O[C@H]3CCN4C(=O)N(C)CCCC/C=C\[C@@H]5C[C@@]5(C(=O)NS(=O)(=O)C5CC5)NC(=O)[C@@H]4C3)cc(-c3nc(C(F)(F)F)cs3)nc2c1C [Compound 51, 1-cyclopropanesulfonic acid{(Z)-(1S,4R,6S,18S)-18-[7-methoxy-8-methyl-2-(4-trifluoromethyl-thiazol-2-yl)-quinolin-4-yloxy]-13-methyl-2,14-dioxo-3,13,15-triaza-tricyclo[13.4.0.0*4,6*]nonadec-7-ene-4-carbonyl}amide]",< 1000,< 1000,10000 to 75000
COc1ccc2c(O[C@H]3CCN4C(=O)CCCCC/C=C\[C@@H]5C[C@@]5(C(=O)NS(=O)(=O)C5CC5)NC(=O)[C@@H]4C3)cc(-c3nc(C(F)(F)F)cs3)nc2c1C [Compound 58],< 1000,< 1000,10000 to 75000
